In the NIST ThermoML archive (doi:10.1016/j.jct.2004.04.004):

Assay: xn = mol fraction of the nth substance listed
Conditions: 101.3 kPa, Liquid

Cc1ccc(C)cc1 [1,4-dimethylbenzene] + C[S+](C)[O-]
Conditions	mass density [kg/m3]
293.15 K, x1 = 0.0599	1077
293.15 K, x1 = 0.1284	1052.94
293.15 K, x1 = 0.1944	1031.59
293.15 K, x1 = 0.2783	1006.68
293.15 K, x1 = 0.3589	984.83
293.15 K, x1 = 0.4385	965.03
293.15 K, x1 = 0.5032	950.09
293.15 K, x1 = 0.5539	939.03
293.15 K, x1 = 0.6235	924.72
293.15 K, x1 = 0.7023	909.62
293.15 K, x1 = 0.7635	898.63
293.15 K, x1 = 0.8243	888.27
293.15 K, x1 = 0.8831	878.73
293.15 K, x1 = 0.9327	871.04
303.15 K, x1 = 0.0632	1067.37
303.15 K, x1 = 0.1639	1032.58
303.15 K, x1 = 0.2343	1010.65
303.15 K, x1 = 0.2934	993.59
303.15 K, x1 = 0.3513	977.92
303.15 K, x1 = 0.425	959.33
303.15 K, x1 = 0.4892	944.29
303.15 K, x1 = 0.5633	928.09
303.15 K, x1 = 0.6398	912.58
303.15 K, x1 = 0.7135	898.68
303.15 K, x1 = 0.7624	889.95
303.15 K, x1 = 0.8243	879.44
303.15 K, x1 = 0.8609	873.48
303.15 K, x1 = 0.9244	863.55
313.15 K, x1 = 0.0662	1057.67
313.15 K, x1 = 0.1358	1033.11
313.15 K, x1 = 0.1942	1014.07
313.15 K, x1 = 0.2578	994.8
313.15 K, x1 = 0.3249	975.96
313.15 K, x1 = 0.3895	959.1
313.15 K, x1 = 0.4509	944.13
313.15 K, x1 = 0.5345	925.24
313.15 K, x1 = 0.6106	909.4
313.15 K, x1 = 0.6719	897.46
313.15 K, x1 = 0.754	882.52
313.15 K, x1 = 0.8358	868.7
313.15 K, x1 = 0.9235	854.92
323.15 K, x1 = 0.0573	1052.39
323.15 K, x1 = 0.1537	1018.34
323.15 K, x1 = 0.2359	992.38
323.15 K, x1 = 0.3131	970.2
323.15 K, x1 = 0.383	951.75
323.15 K, x1 = 0.4509	935.12
323.15 K, x1 = 0.5234	918.67
323.15 K, x1 = 0.5902	904.55
323.15 K, x1 = 0.6618	890.43
323.15 K, x1 = 0.7385	876.35
323.15 K, x1 = 0.8123	863.72
323.15 K, x1 = 0.8832	852.33
323.15 K, x1 = 0.9321	844.86
333.15 K, x1 = 0.0529	1045.49
333.15 K, x1 = 0.1248	1019.37
333.15 K, x1 = 0.1944	996.31
333.15 K, x1 = 0.265	974.86
333.15 K, x1 = 0.3398	954.01
333.15 K, x1 = 0.4014	938.13
333.15 K, x1 = 0.4624	923.43
333.15 K, x1 = 0.5137	911.8
333.15 K, x1 = 0.5823	897.2
333.15 K, x1 = 0.6582	882.18
333.15 K, x1 = 0.731	868.78
333.15 K, x1 = 0.8043	856.2
333.15 K, x1 = 0.8638	846.57
333.15 K, x1 = 0.9247	837.2
343.15 K, x1 = 0.0638	1032.77
343.15 K, x1 = 0.1398	1005.47
343.15 K, x1 = 0.2012	985.32
343.15 K, x1 = 0.275	963.03
343.15 K, x1 = 0.351	942.07
343.15 K, x1 = 0.4132	926.22
343.15 K, x1 = 0.4891	908.31
343.15 K, x1 = 0.5409	896.9
343.15 K, x1 = 0.6148	881.67
343.15 K, x1 = 0.6728	870.48
343.15 K, x1 = 0.7322	859.68
343.15 K, x1 = 0.813	845.91
343.15 K, x1 = 0.8732	836.29
343.15 K, x1 = 0.9322	827.33
353.15 K, x1 = 0.0609	1025.3
353.15 K, x1 = 0.1428	995.69
353.15 K, x1 = 0.218	971.2
353.15 K, x1 = 0.2843	951.45
353.15 K, x1 = 0.3598	930.79
353.15 K, x1 = 0.4241	914.57
353.15 K, x1 = 0.481	901.17
353.15 K, x1 = 0.5393	888.27
353.15 K, x1 = 0.6042	874.83
353.15 K, x1 = 0.6629	863.42
353.15 K, x1 = 0.7321	850.8
353.15 K, x1 = 0.7832	842
353.15 K, x1 = 0.833	833.83
353.15 K, x1 = 0.9128	821.46
